Results as given in paper PMC11400632, “Substrate selectivity and inhibition of the human lysyl hydroxylase JMJD7” (Protein Science : A Publication of the Protein Society, 2024).

Columns and labels:
Assay type in all cases: biochemical
[1] = target: T1, human JMJD7 (Homo sapiens, UniProt P0C870); test: LC-MS assay of JMJD7-catalyzed hydroxylation/oxidation of DRG1 peptides; settings: standard conditions: 2 μM JMJD7, 10 μM peptide, 10 μM 2OG, 2 h
T1 construct: human JMJD7 (residues 1–316) with an N‐terminal His6‐tag; His6 (N); made in house; host or cells: Escherichia coli Rosetta (DE3)
Description: Initial assays were carried out by incubation of purified recombinant (Markolovic et al., [2018]) human JMJD7 (2 μM) in the presence of a DRG1 derived peptide (10 μM), 2OG (10 μM), ferrous ammonium sulfate (FAS, 10 μM), and L‐ascorbate (LAA, 100 μM) in Tris buffer at pH 7.5 for 2 h at room temperature. Potential conversion to a hydroxylated product (+16 Da mass shift) was monitored by liquid‐chromatography‐mass‐spectrometry (LC–MS). […] The assay results also implied that DRG1‐Orn was hydroxylated, but to a lower extent (~21%) than DRG1‐Lys. […] The alcohol‐containing peptide hydroxynorleucine (DRG1‐HNle), was hydroxylated at relatively low levels (~24%), implying that H‐bonding interactions and positive charge of the N^ɛ‐amino group of lysine are important for efficient binding and catalysis, but that a neutral alcohol can still be accommodated at the active site (Figure 3f) (Markolovic et al., [2018]).
All reagents were procured from Sigma Aldrich. 2‐Oxoglutarate (2OG, 10 mM) and L‐ascorbic acid (LAA, 50 mM) solutions were prepared freshly by dissolving the solids in deionized water. Ferrous ammonium sulfate (FAS) solution was prepared freshly by dissolving FAS at 400 mM in 20 mM HCl with subsequent dilution to 1 mM using deionized water. JMJD7 assays using DRG1 (16–40) based peptides were performed with the following conditions: (i) 2 or 5 μM JMJD7, 10 μM DRG1 peptide, 100 μM LAA, 10 μM FAS, 10 μM 2OG in mM 50 Tris‐buffer (pH 7.5), (ii) 2 μM JMJD7, 10 μM DRG1 peptide, 100 μM LAA, 10 μM FAS, 20 μM 2OG in mM 50 Tris‐buffer (pH 7.5). Reactions were initiated by addition of enzyme to the cosubstrate/substrate solution in a final reaction volume of 50 μL with 2 h incubation at room temperature. A positive control reaction containing enzyme and a validated peptide substrate was included in all screening studies. After 2 h, reactions were stopped by addition of 5 μL of 10% (v/v) LC–MS grade formic acid (Fisher Scientific) and transferred to a 96 well plate (Agilent). Intact mass peptide analysis was performed by LC–MS using an Agilent 1290 infinity II LC system equipped with an Agilent 1290 multisampler and an Agilent 1290 high speed pump and connected to an Agilent 6550 accurate mass iFunnel quadrupole time of flight (Q‐TOF) mass spectrometer. The reaction mixture (4 μL) was injected and loaded onto a ZORBAX RRHD Eclipse Plus C18 column (Agilent). Solvent A consisted of LC–MS grade water containing 0.1% (v/v) formic acid and solvent B consisted of MeCN containing 0.1% (v/v) formic acid. Peptides were separated using a step wise gradient (0 min – 95% solvent A, 1.0 min – 80% solvent A, 3.0 min – 45% solvent A, 4.0 min – 45% solvent A, 5.0 min – 0% solvent A, 6.0 min – 0% solvent A, 7.0 min – 95% solvent A). This was followed by a 3 min elution with 95% solvent A to re‐equilibrate the column. Flow rates were 0.2 mL/min. The mass spectrometer was operated in the positive ion mode with a drying gas temperature (280°C), drying gas flow rate (13 L min^−1), nebulizer pressure (40 psig), sheath gas temperature (350°C), sheath gas flow rate (12 L min^−1), capillary voltage (4000 V), nozzle voltage (1000 V). Data were analyzed using Agilent MassHunter Qualitative Analysis (Version B.07.00) software.

[2] = target: T1, human JMJD7; test: SPE-MS time-course and steady-state kinetics of JMJD7-catalyzed hydroxylation; settings: 1.0 μM peptide, 50 nM JMJD7, SPE-MS time-course
Description: Having shown that introduction of γ‐thialysine and γ‐azalysine residues into DRG1 peptides generates substrates that are efficiently hydroxylated by JMJD7, giving nascent products that fragment to give formylglycine, we explored whether these two peptides could compete with the DRG1‐Lys substrate for JMJD7 catalysis. The reactions of DRG1‐Lys, DRG1‐CysNH2 and DRG1‐LysN (1.0 μM) by JMJD7 (50 nM) were investigated as a function of time using SPE‐MS assays.
To quantify the relative efficiencies of DRG1‐Lys and the substrate analog DRG1‐LysE, we carried out kinetics analyses using SPE‐MS assays as the levels of JMJD7‐catalyzed hydroxylation were sufficient for these two substrates.
JMJD7 turnover assays for kinetic studies were performed in 96‐well polypropylene assay plates with 1.0 mL total reaction volume using a series of concentrations of the DRG1 peptide (0.1–5.0 μM), 2OG (20 μM), FAS (10 μM), LAA (100 μM). Reactions were initiated by the addition of JMJD7 (100 nM). MS‐analyses were performed using a RapidFire RF 365 high‐throughput sampling robot (Agilent) attached to an iFunnel Agilent 6550 accurate mass quadrupole time‐of‐flight (Q‐TOF) mass spectrometer operated in the positive ionization mode. The RapidFire RF 365 high‐throughput sampling robot was programmed to aspirate samples from the reaction mixture at the indicated time intervals. Assay samples were loaded onto a C4 solid phase extraction (SPE) cartridge and peptides were eluted using given previous protocols (Tumber et al., [2023]). The % conversion of the hydroxylation reaction were calculated from the ion chromatogram data by integrating peak areas using RapidFire Integrator 4.3.0 software (Agilent).

[3] = target: T1, human JMJD7; test: NMR assay of JMJD7-catalyzed reaction of DRG1 peptides; settings: 200 μM peptide, 10 μM JMJD7, 30 μM FAS, 200 μM 2OG, 500 μM LAA, phosphate buffer 10% D2O, pH 7.4, 1H NMR time-course
Description: To validate the fragmentation of the product on hydroxylation of the DRG1‐CysNH2 peptide, we performed NMR studies focusing on the appearance of small molecules, comparing the results with the DRG1‐Lys substrate. Reactions were carried out by incubating the DRG1 peptide (200 μM) in the presence or absence of enzyme (10 μM JMJD7, 30 μM FAS, 200 μM 2OG, 500 μM LAA, phosphate buffer in 10% D2O v/v, pH 7.4). […] The observation of a DRG1‐CysNH2 derived product with two methylene groups (triplets, δ ~ 3.13 ppm, δ ~ 2.75 ppm) together with spiking using a standard solution confirmed the formation of cysteamine (Figure 4c (1), Figure S35a). […] A loss in intensity of the cysteamine peaks was observed over time, possibly indicating oxidation and/or interactions with JMJD7 (Figure S35).
Stock solutions of L‐ascorbate (LAA; 500 mM), 2‐oxoglutarate (2OG; 20 mM), ferrous ammonium sulphate (FAS; 100 mM), and (trimethylsilyl)propionic‐2,2,3,3‐d 4 (TSP‐d 4; 8 mM) were freshly prepared in water on the day NMR assays were run. These stock solutions of LAA, FAS, and 2OG were diluted using aqueous buffer (50 mM sodium phosphate, pH 7.4, 10% v/v D2O) to give FAS (0.3 mM), 2OG (2 mM), and LAA (5 mM). DRG1 peptides were solubilized in buffer to a final concentration of 2 mM for use in NMR assays. […] Turnover was quantified using TSP‐d 4 as an internal standard.

T1 sequence (P0C870 whole entry, the tested form may be a part): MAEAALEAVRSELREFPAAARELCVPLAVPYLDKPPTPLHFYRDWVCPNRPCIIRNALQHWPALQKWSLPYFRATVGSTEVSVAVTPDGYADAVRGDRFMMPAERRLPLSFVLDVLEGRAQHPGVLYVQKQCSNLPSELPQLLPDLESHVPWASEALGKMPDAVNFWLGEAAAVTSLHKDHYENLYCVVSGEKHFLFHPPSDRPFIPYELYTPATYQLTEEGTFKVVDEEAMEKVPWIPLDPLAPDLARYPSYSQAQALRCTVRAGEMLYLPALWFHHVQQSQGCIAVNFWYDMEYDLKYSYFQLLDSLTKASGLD

## ARTQKNCysNH2ATAHHLGLLKARLAKLRR [DRG1‐CysNH2, 25-mer DRG1 (16–40) peptide with γ-thialysine at position 22]
[1]
  fate of the JMJD7 C3-hydroxylation product: fragmentation to form DRG1‐formylglycine and its hydrated products
[2]
  time to complete JMJD7-catalyzed hydroxylation: ≤ 4 min
[3]
  time to formation of the cysteamine fragment: ≤ 15 min
